Reference: patent EP0540676B1, “PEPTIDE COMPOUNDS HAVING GROWTH HORMONE RELEASING ACTIVITY” (POLYGEN HOLDING CORPORATION, priority 1990, dated 1994)
“And” between values parts separate entries of the source, which are not always exact repeats. Equal entries are not always repeated. Where a SMILES comes first, the peptide text is derived from it. [ ]: non-standard residue; d: D form.

Test system: GH Release
Assay: In vivo GH release in pentobarbital anesthetized rats (serum GH by RIA)
Settings: for GH Released: Table 5, anesthetized rats; for GH Released / GH Released by Compound in Column A: mean ± SEM, six rats; for GH Released Serum GH ng/ml ± SEM (N=6): Table 6, pentobarbital anesthetized rats (table title); for GH Released Serum GH ng/ml ± SEM (N=6) / GH Released by Compound in Column A: sacrificed 10 minutes after final injection; for GH Released by Compound in Column A: Table 4, pentobarbital anesthetized rats; for activity compared with peptides having another residue in the A₂ position: in words, summary of Tables 3, 4, 5 and 6, rats
Protocol: Immature female Sprague-Dawley rats were obtained from the Charles River Laboratories (Wilmington, MA). After arrival they were housed at 25 °C with a 14:10 hour light:dark cycle. Water and Purina rat chow were available ad libitum. Pups were kept with their mothers until 21 days of age.
Twenty-six day old rats, six rats per treatment group, were anesthetized interperitoneally with 50 mg/Kg of pentobarbital 20 minutes prior to i.v. treatment with peptide. Normal saline with 0.1% gelatin was the vehicle for intravenous (i.v.) injections of the peptides. The anesthetized rats, weighing 55-65 grams, were injected i.v. with the quantity of growth hormone releasing compounds indicated in Tables 3, 4 and 5. Injection was made as a 0.2 mL solution into the jugular vein.
All animals were sacrificed by guillotine 10 minutes after the final test injection (see Tables 3 and 4). Trunk blood for the determination of blood GH levels was collected following decapitation. After allowing the blood to clot, it was centrifuged and the serum was separated from the clot. Serum was kept fozen until the day of sampling for radioimmunasay (RIA) determination of growth hormone levels according to the following procedure, as developed by the National Institute of Arthritis, Diabetes and Digestive and Kidney Diseases (NIADDK).
Reagents are generally added to the RIA analysis tubes at a single sitting, at refrigerator temperature (about 4 °C) in the following sequence: • (a) buffer, • (b) "cold" (i.e., non-radioactive) standard or unknown serum sample to be analyzed, • (c) radio-iodinated growth hormone antigen, and • (d) growth hormone antiserum. Reagent addition is generally carried out so that there is achieved a final RIA tube dilution of about 1:30,000 (antiserum to total liquid volume; vol:vol).
The mixed reagents are then typically incubated at room temperature (about 25 °C) for about 24 hours prior to addition of a second antibody (e.g., goat or rabbit anti-monkey gamma globulin serum) which binds to and causes precipitation of the complexed growth hormone anti serum. Precipitated contents of the RIA tubes are then analyzed for the number of counts in a specified period of time in a gamma scintillation counter. A standard curve is prepared by plotting number of radioactive counts versus growth hormone (GH) level. GH levels of unknowns are then determined by reference to the standard curve.
Serum GH was measured by RIA with reagents provided by the National Hormone and Pituitary Program.
Serum levels in Tables 3, 4, 5 and 6 are recorded in ng/mL in terms of the rat GH standard of 0.61 International Units/mg (IU/mg). Data is recorded as the mean +/- standard error of the mean (SEM). Statistical analysis was performed with Student's t-test. NS means the difference was not statistically significant. In Tables 3, 4, 5 and 6 the results shown are the average of studies with six rats.

[1] = Total Dose 0.3 µg, several experiments with different controls
[2] = Total Dose 1.0 µg, several experiments with different controls

C[C@H](NC(=O)[C@@H](Cc1ccccc1)NC(=O)[C@H](Cc1c[nH]c2ccccc12)NC(=O)[C@H](C)NC(=O)[C@@H](Cc1c[nH]c2ccccc12)NC(=O)[C@@H](N)Cc1c[nH]cn1)C(=O)N[C@@H](CCCCN)C(N)=O [His-DTrp-Ala-Trp-DPhe-Ala-Lys-NH₂] (HELM PEPTIDE1{H.[dW].A.W.[dF].A.K.[am]}$$$$V2.0) was tested, and the “GH Released” value (Total Dose 1.0 µg i.v.) was 1965 ± 366 ng/mL, the “GH Released” value (Total Dose 3.0 µg i.v.) was 4553 ± 670 ng/mL and the “GH Released” value (Total Dose .1 µg i.v.) was 420 ± 105 ng/mL. The “GH Released” value (Total Dose .3 µg i.v.) was 900 ± 163 ng/mL.

In the case of C[C@H](NC(=O)[C@@H](Cc1c[nH]c2ccccc12)NC(=O)[C@@H](N)Cc1c[nH]cn1)C(=O)N[C@@H](Cc1c[nH]c2ccccc12)C(=O)N[C@H](Cc1ccccc1)C(=O)N[C@@H](CCCCN)C(N)=O [His-DTrp-Ala-Trp-DPhe-Lys-NH₂] (HELM PEPTIDE1{H.[dW].A.W.[dF].K.[am]}$$$$V2.0), the “GH Released” value (Total Dose 1.0 µg i.v.) is reported as 1531 ± 303 ng/mL, the “GH Released” value (Total Dose 3.0 µg i.v.) is reported as 2349 ± 267 ng/mL and the “GH Released” value (Total Dose .1 µg i.v.) is reported as 512 ± 43 ng/mL. The “GH Released” value (Total Dose .3 µg i.v.) was 566 ± 114 ng/mL.

For C[C@H](N)C(=O)N[C@H](Cc1ccc2ccccc2c1)C(=O)N[C@@H](C)C(=O)N[C@@H](Cc1c[nH]c2ccccc12)C(=O)N[C@H](Cc1ccccc1)C(=O)N[C@@H](CCCCN)C(N)=O [Ala-DβNal-Ala-Trp-DPhe-Lys-NH₂] (HELM PEPTIDE1{A.[O=C([C@@H](Cc1ccc2ccccc2c1)N[*:1])[*:2]].A.W.[dF].K.[am]}$$$$V2.0), the “GH Released Serum GH ng/ml ± SEM (N=6)” value [1] was 363 ± 73 ng/mL, the “GH Released Serum GH ng/ml ± SEM (N=6)” value [2] was 1450 ± 294 ng/mL and the “GH Released Serum GH ng/ml ± SEM (N=6)” value (Total Dose 3.0 µg) was 2072 ± 208 ng/mL. For the same compound, the “GH Released Serum GH ng/ml ± SEM (N=6)” value (Total Dose 10.0 µg) was 2698 ± 369 ng/mL.

With C[C@H](NC(=O)[C@@H](Cc1cccc2ccccc12)NC(=O)[C@@H](N)Cc1c[nH]cn1)C(=O)N[C@@H](Cc1c[nH]c2ccccc12)C(=O)N[C@H](Cc1ccccc1)C(=O)N[C@@H](CCCCN)C(N)=O [His-D^αNal-Ala-Trp-DPhe-Lys-NH₂] (HELM PEPTIDE1{H.[O=C([C@@H](Cc1cccc2ccccc12)N[*:1])[*:2]].A.W.[dF].K.[am]}$$$$V2.0) the “GH Released” value (Total Dose 1.0 µg i.v.) was 1130 ± 179 ng/mL, the “GH Released” value (Total Dose 3.0 µg i.v.) was 2319 ± 139 ng/mL and the “GH Released” value (Total Dose .1 µg i.v.) was 280 ± 70 ng/mL. The “GH Released” value (Total Dose .3 µg i.v.) was 439 ± 122 ng/mL.

For C[C@H](NC(=O)[C@@H](Cc1ccccc1)NC(=O)[C@H](Cc1c[nH]c2ccccc12)NC(=O)[C@H](C)NC(=O)[C@@H](Cc1ccc2ccccc2c1)NC(=O)[C@@H](N)Cc1c[nH]cn1)C(=O)N[C@@H](CCCCN)C(N)=O [His-D^βNal-Ala-Trp-DPhe-Ala-Lys-NH₂] (HELM PEPTIDE1{H.[O=C([C@@H](Cc1ccc2ccccc2c1)N[*:1])[*:2]].A.W.[dF].A.K.[am]}$$$$V2.0), the “GH Released” value (Total Dose 1.0 µg i.v.) was 1593 ± 359 ng/mL, the “GH Released” value (Total Dose 3.0 µg i.v.) was 3337 ± 583 ng/mL and the “GH Released” value (Total Dose .1 µg i.v.) was 484 ± 89 ng/mL. The “GH Released” value (Total Dose .3 µg i.v.) was 971 ± 241 ng/mL.

CSC[C@@H](NC(=O)[C@@H](N)Cc1c[nH]cn1)C(=O)N[C@@H](C)C(=O)N[C@@H](Cc1c[nH]c2ccccc12)C(=O)N[C@H](Cc1ccccc1)C(=O)N[C@@H](CCCCN)C(N)=O [His-DCys(SMe)-Ala-Trp-DPhe-Lys-NH₂] (H-H[dC](Me)AW[dF]K-NH2) was tested, and the “GH Released” value (Total Dose 1.0 µg i.v.) was 193 ± 28 ng/mL, the “GH Released” value (Total Dose 3.0 µg i.v.) was 180 ± 34 ng/mL and the “GH Released” value (Total Dose .3 µg i.v.) was 178 ± 28 ng/mL.

C[C@H](N)C(=O)N[C@@H](Cc1c[nH]cn1)C(=O)N[C@H](Cc1c[nH]cn1)C(=O)N[C@@H](C)C(=O)N[C@@H](Cc1c[nH]c2ccccc12)C(=O)N[C@H](Cc1ccccc1)C(=O)N[C@@H](CCCCN)C(N)=O [AlaHisDHisAlaTrpDPheLysNH₂] (HELM PEPTIDE1{A.H.[dH].A.W.[dF].K.[am]}$$$$V2.0) was tested, and the “GH Released by Compound in Column A” value (Total Dose .3 µg i.v.) was 268 ± 54 ng/mL.

For C[C@H](NC(=O)[C@@H](CC(=O)O)NC(=O)[C@@H](N)Cc1c[nH]cn1)C(=O)N[C@@H](Cc1c[nH]c2ccccc12)C(=O)N[C@H](Cc1ccccc1)C(=O)N[C@@H](CCCCN)C(N)=O [His-DAsp-Ala-Trp-DPhe-Lys-NH₂] (HELM PEPTIDE1{H.[dD].A.W.[dF].K.[am]}$$$$V2.0), the “GH Released” value (Total Dose 1.0 µg i.v.) was 154 ± 63 ng/mL, the “GH Released” value (Total Dose 3.0 µg i.v.) was 155 ± 34 ng/mL and the “GH Released” value (Total Dose 10.0 µg i.v.) was 163 ± 44 ng/mL. For the same compound, the “GH Released” value (Total Dose 30.0 µg i.v.) was 224 ± 62 ng/mL and the “GH Released” value (Total Dose 100.0 µg i.v.) was 178 ± 83 ng/mL.

For C[C@H](NC(=O)[C@@H](Cc1ccc2ccccc2c1)NC(=O)[C@@H](N)Cc1c[nH]cn1)C(=O)N[C@@H](Cc1c[nH]c2ccccc12)C(=O)N[C@H](Cc1ccccc1)C(=O)N[C@@H](CCCCN)C(N)=O [His-D^βNal-Ala-Trp-DPhe-Lys-NH₂] (HELM PEPTIDE1{H.[O=C([C@@H](Cc1ccc2ccccc2c1)N[*:1])[*:2]].A.W.[dF].K.[am]}$$$$V2.0), the “activity compared with peptides having another residue in the A₂ position” value was “more active than compounds having DTrp, D^αNal, DAsp, and DCys (SMe) in the A₂ position”.

In the case of C[C@H](N)C(=O)N[C@@H](Cc1c[nH]cn1)C(=O)N[C@H](Cc1c[nH]c2ccccc12)C(=O)N[C@@H](C)C(=O)N[C@@H](Cc1c[nH]c2ccccc12)C(=O)N[C@H](Cc1ccccc1)C(=O)N[C@@H](CCCCN)C(N)=O [AlaHisDTrpAlaTrpDPheLysNH₂] (HELM PEPTIDE1{A.H.[dW].A.W.[dF].K.[am]}$$$$V2.0), the “GH Released by Compound in Column A” value (Total Dose .3 µg i.v.) is reported as 901 ± 21 ng/mL.

C[C@H](N)C(=O)N[C@@H](Cc1c[nH]cn1)C(=O)N[C@H](Cc1ccc2ccccc2c1)C(=O)N[C@@H](C)C(=O)N[C@@H](Cc1c[nH]c2ccccc12)C(=O)N[C@H](Cc1ccccc1)C(=O)N[C@@H](CCCCN)C(N)=O [Ala-His-DβNal-Ala-Trp-DPhe-Lys-NH₂, Ala-His-D^βNal-Ala-Trp-DPhe-Lys-NH₂] (HELM PEPTIDE1{A.H.[O=C([C@@H](Cc1ccc2ccccc2c1)N[*:1])[*:2]].A.W.[dF].K.[am]}$$$$V2.0) was tested, and the “GH Released Serum GH ng/ml ± SEM (N=6)” value (Total Dose 0.1 µg, several experiments with different controls) was 822 ± 243 ng/mL and 610 ± 90 ng/mL, the “GH Released Serum GH ng/ml ± SEM (N=6)” value [1] was 1418 ± 302 ng/mL and 1746 ± 318 ng/mL and 1549 ± 292 ng/mL and 1140 ± 187 ng/mL and the “GH Released Serum GH ng/ml ± SEM (N=6)” value [2] was 2201 ± 269 ng/mL and 2610 ± 176 ng/mL and 2180 ± 284 ng/mL and 2909 ± 257 ng/mL. For the same compound, the “GH Released Serum GH ng/ml ± SEM (N=6)” value (Total Dose 3.0 µg) was 3686 ± 436 ng/mL and the “activity compared with peptides having another residue in the A₂ position” value was “more active than the equivalent DTrp compound”.

C[C@H](N)C(=O)N[C@@H](Cc1c[nH]cn1)C(=O)N[C@H](Cc1ccccc1)C(=O)N[C@@H](C)C(=O)N[C@@H](Cc1c[nH]c2ccccc12)C(=O)N[C@H](Cc1ccccc1)C(=O)N[C@@H](CCCCN)C(N)=O [AlaHisDPheAlaTrpDPheLysNH₂] (HELM PEPTIDE1{A.H.[dF].A.W.[dF].K.[am]}$$$$V2.0) was tested, and the “GH Released by Compound in Column A” value (Total Dose .3 µg i.v.) was 616 ± 74 ng/mL.

In the case of C[C@H](N)C(=O)N[C@@H](Cc1c[nH]cn1)C(=O)N1CCC[C@@H]1C(=O)N[C@@H](C)C(=O)N[C@@H](Cc1c[nH]c2ccccc12)C(=O)N[C@H](Cc1ccccc1)C(=O)N[C@@H](CCCCN)C(N)=O [AlaHisDProAlaTrpDPheLysNH₂] (HELM PEPTIDE1{A.H.[dP].A.W.[dF].K.[am]}$$$$V2.0), the “GH Released by Compound in Column A” value (Total Dose .3 µg i.v.) is reported as 262 ± 51 ng/mL.

C[C@H](NC(=O)[C@@H](N)Cc1c[nH]cn1)C(=O)N[C@H](Cc1c[nH]c2ccccc12)C(=O)N[C@@H](C)C(=O)N[C@@H](Cc1c[nH]c2ccccc12)C(=O)N[C@H](Cc1ccccc1)C(=O)N[C@@H](CCCCN)C(N)=O [His-Ala-DTrp-Ala-Trp-DPhe-Lys-NH₂] (HELM PEPTIDE1{H.A.[dW].A.W.[dF].K.[am]}$$$$V2.0) was tested, and the “GH Released” value (Total Dose 1.0 µg i.v.) was 830 ± 103 ng/mL, the “GH Released” value (Total Dose 3.0 µg i.v.) was 2588 ± 341 ng/mL and the “GH Released” value (Total Dose .3 µg i.v.) was 261 ± 32 ng/mL.
